Data published in patent publication US20130252813A1, “Herbicidal Compositions for Tolerant or Resistant Sugar Beet Crops” (Bayer CropScience AG, priority 1998, published 2013).

Legend:
Format in all cases: in vivo
Avena fatua = experiment: Herbicidal action and selectivity in sugar beet crop (field trial, Table 5); settings: application in the 3-5-leaf stage, scoring 4 weeks after application
Method: (§1) Transgenic sugar beet plants with resistance to one or more herbicides (A) were grown together with typical weed plants in the open in 2×5 m plots under natural field conditions; alternatively, the weed population established naturally while the sugar beet plants grew. Treatment with the compositions according to the invention and, for control purposes, with separate application of the active ingredients of the components alone, was carried out under standard conditions with a plot sprayer at an application rate of 200-300 liters of water per hectare in parallel trials in accordance with the scheme of Table 1, i.e. pre-sowing/pre-emergence, […] or post-emergence at the early, medium or late stage.
(§2) At 2, 4, 6 and 8 week intervals after application, the herbicidal activity of the active ingredients or active ingredient mixtures were scored visually by comparing the treated plots with untreated control plots. Damage and development of all aerial plant organs was recorded. The scoring was done using a percentage scale (100% activity=all plants dead; 50% activity=50% of the plants and green plant organs dead; 0% activity=no discernible effect=like control plot). The score values of in each case 4 plots were averaged.

transgenic sugar beet [1] = experiment: Damage to transgenic sugar beet (field trial, Table 5); settings: application in the 3-5-leaf stage
Method: as §1, §2

Galium aparine [2] = experiment: Herbicidal action (field trial, Table 7); settings: application in the 4-5-leaf stage, scoring 26 days after application
Method: as §1, §2

transgenic sugar beet [3] = experiment: Damage to transgenic sugar beet - field trial (Table 2); settings: application in 2-4-leaf stage
Method: as §1, §2

Setaria viridis [4] = experiment: Herbicidal action in sugar beet - field trial (Table 2); settings: application in 2-4-leaf stage, scoring 3 weeks after application
Method: as §1
(§3) […] Damage and development of all aerial plant organs was recorded. The scoring was done using a percentage scale (100% activity=all plants dead; 50% activity=50% of the plants and green plant organs dead; 0% activity=no discernible effect=like control plot). The score values of in each case 4 plots were averaged.

Amaranthus retroflexus = experiment: Herbicidal action (field trial, sequential treatment, Table 8); settings: dose 3500 g A.S./ha pre-emergence; scorings 22 days after application
Method: as §1, §3

Setaria viridis [5] = experiment: as above; settings: dose 3500 g A.S./ha pre-emergence; scorings 22 days after application
Method: as §1, §3

Galium aparine [6] = experiment: Herbicidal action in sugar beet crop (greenhouse experiment, Table 3); settings: application in the 4-5-leaf stage, scoring 3 weeks after application
Text: Seeds or rhizomes of monocotyledonous and dicotyledonous weeds are placed in sandy loam soil in cardboard pots, covered with soil and grown in the greenhouse under good growth conditions. […] The compositions according to the
Invention, which are formulated as wettable powders or as emulsion concentrates, are sprayed at various dosages onto the green plant organs at an application rate of 600 to 800 l of water per ha (converted). After the experimental plants have remained in the greenhouse for approx. 3 to 4 weeks under optimal growth conditions, the effect of the preparations is scored visually in comparison with untreated controls. The compositions according to the invention also have a good herbicidal activity against a broad spectrum of economically Important grass weeds and broad-leaved weeds when applied post-emergence.

transgenic sugar beet [7] = experiment: Damage to transgenic sugar beet (greenhouse experiment, Table 3); set-up: scale not given here; settings: greenhouse Table 3, application in the 4-5-leaf stage
Echinochloa crus-galli = experiment: Herbicidal action and selectivity in sugar beet crop (field trial, Table 4); settings: application in 3-leaf stage, scoring 4 weeks after application
Method: as §1, §2

transgenic sugar beet [8] = experiment: Damage to transgenic sugar beet (field trial, Table 4); settings: application in 3-leaf stage
Method: as §1, §2

CCOC(=O)C(C)Oc1ccc(Oc2nc3ccc(Cl)cc3o2)cc1 (racemic) [(B3.2), fenoxaprop-ethyl (rac.)]
Herbicidal action in % against Avena fatua (Avena fatua; dose 15 g A.S./ha): 20%
Herbicidal action in % against Avena fatua (Avena fatua; dose 30 g A.S./ha): 60%
Herbicidal action in % against Avena fatua (Avena fatua; dose 60 g A.S./ha): 85%
Damage to transgenic sugar beet (transgenic sugar beet [1]; dose 15 g A.S./ha): 0
Damage to transgenic sugar beet (transgenic sugar beet [1]; dose 30 g A.S./ha): 0
Damage to transgenic sugar beet (transgenic sugar beet [1]; dose 60 g A.S./ha): 0

CC(C)N.O=C(O)CNCP(=O)(O)O [(A2.2), monoisopropylammonlum salt of glyphosate]
Herbicidal action in % against Galium aparine (Galium aparine [2]; dose 125 g A.S./ha): 10%
Herbicidal action in % against Galium aparine (Galium aparine [2]; dose 250 g A.S./ha): 40%
Herbicidal action in % against Galium aparine (Galium aparine [2]; dose 500 g A.S./ha): 60%
Herbicidal action in % against Galium aparine (Galium aparine [2]; dose 1000 g A.S./ha): 85%

Cc1cccc(S(=O)(=O)NC(=O)Nc2nc(OCC(F)(F)F)nc(N(C)C)n2)c1C(=O)O [(B1.3)]
Damage to transgenic sugar beet (transgenic sugar beet [3]; dose 8 g A.S./ha): 0
Damage to transgenic sugar beet (transgenic sugar beet [3]; dose 17 g A.S./ha): 0
Herbicidal action in % against Setaria viridis (Setaria viridis [4]; dose 8 g A.S./ha): 0%
Herbicidal action in % against Setaria viridis (Setaria viridis [4]; dose 17 g A.S./ha): 20%

Cc1nnc(-c2ccccc2)c(=O)n1N [(B1.4), 4-amino-4,5-dihydro-3-methyl-6-phenyl-1,2,4-triazin-5-one]
Herbicidal action in % against Amaranthus retroflexus (Amaranthus retroflexus): 73%
Herbicidal action in % against Setaria viridis (Setaria viridis [5]): 20%
Herbicidal action in % against Galium aparine (Galium aparine [6]; dose 750 g A.S./ha): 5%
Herbicidal action in % against Galium aparine (Galium aparine [6]; dose 1500 g A.S./ha): 5%
Herbicidal action in % against Galium aparine (Galium aparine [6]; dose 3000 g A.S./ha): 5%
Damage to transgenic sugar beet (transgenic sugar beet [7]; dose 750 g A.S./ha): 0
Damage to transgenic sugar beet (transgenic sugar beet [7]; dose 1500 g A.S./ha): 0
Damage to transgenic sugar beet (transgenic sugar beet [7]; dose 3000 g A.S./ha): 0

COC(=O)Nc1cccc(NC(=O)Oc2cccc(C)c2)c1 [(B2.2), 3-methylphenyl N-[3-(methoxycarbonylamino)phenyl]carbamate]
Herbicidal action in % against Galium aparine (Galium aparine [6]; dose 500 g A.S./ha): 20%
Herbicidal action in % against Galium aparine (Galium aparine [6]; dose 1000 g A.S./ha): 30%
Herbicidal action in % against Galium aparine (Galium aparine [6]; dose 2000 g A.S./ha): 30%
Damage to transgenic sugar beet (transgenic sugar beet [7]; dose 500 g A.S./ha): 0
Damage to transgenic sugar beet (transgenic sugar beet [7]; dose 1000 g A.S./ha): 0
Damage to transgenic sugar beet (transgenic sugar beet [7]; dose 2000 g A.S./ha): 0
Herbicidal action in % against Galium aparine (Galium aparine [2]; dose 500 g A.S./ha): 20%
Herbicidal action in % against Galium aparine (Galium aparine [2]; dose 1000 g A.S./ha): 30%
Herbicidal action in % against Galium aparine (Galium aparine [2]; dose 2000 g A.S./ha): 30%

O=C(O)c1nc(Cl)ccc1Cl [(B2.4), 3,6-dichloropyridine-2-carboxylic acid]
Herbicidal action in % against Galium aparine (Galium aparine [6]; dose 50 g A.S./ha): 5%
Herbicidal action in % against Galium aparine (Galium aparine [6]; dose 100 g A.S./ha): 35%
Herbicidal action in % against Galium aparine (Galium aparine [6]; dose 200 g A.S./ha): 45%
Damage to transgenic sugar beet (transgenic sugar beet [7]; dose 50 g A.S./ha): 0
Damage to transgenic sugar beet (transgenic sugar beet [7]; dose 100 g A.S./ha): 0
Damage to transgenic sugar beet (transgenic sugar beet [7]; dose 200 g A.S./ha): 0

CCC/C(=N\OCC)C1=C(O)CC(CC(C)SCC)CC1=O (stereo not shown) [(B4.1), (E,Z)-2-(1-ethoxyimino-butyl)-5-[2-(ethylthio)propyl]-3-hydroxycyclohex-2-enone]
Herbicidal action in % against Echinochloa crus-galli (Echinochloa crus-galli; dose 105 g A.S./ha): 35%
Herbicidal action in % against Echinochloa crus-galli (Echinochloa crus-galli; dose 210 g A.S./ha): 73%
Herbicidal action in % against Echinochloa crus-galli (Echinochloa crus-galli; dose 315 g A.S./ha): 85%
Damage to transgenic sugar beet (transgenic sugar beet [8]; dose 105 g A.S./ha): 0
Damage to transgenic sugar beet (transgenic sugar beet [8]; dose 210 g A.S./ha): 0
Damage to transgenic sugar beet (transgenic sugar beet [8]; dose 315 g A.S./ha): 0

CCCC(=NOCC)C1=C(O)CC(C2CCCSC2)CC1=O (stereo not shown) [(B4.2), 2-(1-ethoxyiminobutyl)-3-hydroxy-5-thian-3-ylcyclohex-2-enone]
Herbicidal action in % against Echinochloa crus-galli (Echinochloa crus-galli; dose 62.5 g A.S./ha): 45%
Herbicidal action in % against Echinochloa crus-galli (Echinochloa crus-galli; dose 125 g A.S./ha): 70%
Herbicidal action in % against Echinochloa crus-galli (Echinochloa crus-galli; dose 250 g A.S./ha): 93%
Damage to transgenic sugar beet (transgenic sugar beet [8]; dose 62.5 g A.S./ha): 0
Damage to transgenic sugar beet (transgenic sugar beet [8]; dose 125 g A.S./ha): 0
Damage to transgenic sugar beet (transgenic sugar beet [8]; dose 250 g A.S./ha): 0
